Data published in ChEMBL document CHEMBL1126146, “Synthesis and muscarinic activity of quinuclidinyl- and (1-azanorbornyl)pyrazine derivatives” (J Med Chem, 1992).

Tests used:
[1] = molecular target: T1, Muscarinic acetylcholine receptor (Rattus norvegicus) (UniProt P08482+P08483+P08485+P08911+P10980)
Description: In vitro binding affinity against cortical muscarinic acetylcholine receptor measured by displacement of [3H]OXO-M.

[2] = molecular target: T1, Muscarinic acetylcholine receptor (Rattus norvegicus); remark: listed apart in the source
Description: In vitro binding affinity against cortical muscarinic acetylcholine receptor measured by displacement of [3H]NMS.

Row | Structure (SMILES) | K app [1] [µM] | K app [2] [µM]
1 | Cc1cnc(C)c([C@H]2CN3CCC2C3)n1 (some centres not stated) | 0.011 | 0.19
2 | CCc1cncc(C2CN3CCC2C3)n1 (stereo in doubt; 27a) | 0.0095 | 0.13
3 | c1cnc([C@H]2CN3CCCC2C3)cn1 (some centres not stated) | 0.00084 | 0.4
4 | CC(C)Oc1cncc([C@H]2CN3CCC2C3)n1 (some centres not stated) | 0.031 | 0.13
5 | COc1cncc([C@@H]2CN3CCCC2C3)n1 (some centres not stated) | 0.0093 | 0.19
6 | c1cnc(C2CN3CCC2CC3)cn1 (configuration not stated) | 0.00068 | 0.27
7 | COc1cncc([C@@H]2CN3CCC2C3)n1 (some centres not stated) | 0.0098 | 0.46
8 | c1cnc([C@@H]2CN3CCCC2C3)cn1 (some centres not stated) | 0.014 | 1.5
9 | c1cnc([C@@H]2CN3CCC2C3)cn1 (some centres not stated) | 0.0007 | 1.6
10 | CCc1nccnc1[C@@H]1CN2CCC1C2 (some centres not stated) | 0.14 | 2.2
11 | Cc1nccnc1[C@@H]1CN2CCC1C2 (some centres not stated) | 0.0016 | 5.2
12 | CC(C)c1nccnc1C1CN2CCC1C2 (configuration not stated) | 0.022 | 0.48
13 | Clc1cncc(C2CN3CCC2CC3)n1 (configuration not stated) | 0.00087 | 0.051
14 | C=CCOc1cncc([C@@H]2CN3CCC2C3)n1 (some centres not stated) | 0.021 | 0.12
15 | Cc1cncc([C@H]2CN3CCC2C3)n1 (some centres not stated) | 0.0014 | 0.18
16 | Cc1cncc([C@@H]2CN3CCC2C3)n1 (some centres not stated) | 0.0015 | 0.47
17 | CN(C)c1cncc([C@@H]2CN3CCC2C3)n1 (some centres not stated) | 0.07 | 0.03
18 | Clc1ccc(C2CN3CCC2CC3)nn1 (configuration not stated) | 0.098 | 3.5
19 | Clc1cncc(C2CN3CCC2C3)n1 (configuration not stated) | 0.00056 | 0.21
20 | CCc1cncc(C2CN3CCC2CC3)n1 (configuration not stated) | 0.0017 | 0.02
21 | Cc1cnc([C@@H]2CN3CCC2C3)c(C)n1 (some centres not stated) | 0.66 | 6.2
22 | Cc1ncc(C2CN3CCC2CC3)cn1 (configuration not stated) | 0.091 | 1.5
23 | CCc1cncc(C2CN3CCC2C3)n1 (stereo in doubt; 27b) | 0.0021 | 0.15
24 | CCCc1nccnc1C1CN2CCC1C2 (configuration not stated) | 0.015 | 0.35
25 | CCc1nccnc1[C@H]1CN2CCC1C2 (some centres not stated) | 0.02 | 0.69

Row | Structure (SMILES) | K app [1] [µM] | K app [2] [µM]
26 | Cc1cnc([C@H]2CN3CCC2C3)c(C)n1 (some centres not stated) | 0.017 | 0.75
27 | Cc1ncc([C@H]2CN3CCC2C3)nc1C (some centres not stated) | 0.015 | 0.28
28 | COc1cncc([C@H]2CN3CCCC2C3)n1 (some centres not stated) | 0.087 | 1.2
29 | Cc1cncc(C2CN3CCC2CC3)n1 (configuration not stated) | 0.0021 | 0.066
30 | c1ncc(C2CN3CCC2CC3)cn1 (configuration not stated) | 0.16 | 2.8
31 | Cc1nc(C)c([C@@H]2CN3CCC2C3)nc1C (some centres not stated) | 0.25 | 1.6
32 | COc1cncc([C@H]2CN3CCC2C3)n1 (some centres not stated) | 0.038 | 0.96
33 | Cc1cnc(C)c([C@@H]2CN3CCC2C3)n1 (some centres not stated) | 0.13 | 3
34 | Brc1cncc(C2CN3CCC2CC3)n1 (configuration not stated) | 0.001 | 0.033
35 | CCOc1cncc(C2CN3CCC2CC3)n1 (configuration not stated) | 0.0021 | 0.019
36 | Cc1ncc(C2CN3CCC2CC3)nc1C (configuration not stated) | 0.0095 | 0.078
37 | Oc1cncc(C2CN3CCC2CC3)n1 (configuration not stated) | 0.28 | 27
38 | Cc1nc(C)c([C@H]2CN3CCC2C3)nc1C (some centres not stated) | 0.053 | 0.35
39 | Cc1cnc(C)c(C2CN3CCC2CC3)n1 (configuration not stated) | 0.026 | 0.26
40 | c1cnc([C@H]2CN3CCC2C3)cn1 (some centres not stated) | < 8.6e-05 | 0.059
41 | CN(C)c1cncc([C@H]2CN3CCC2C3)n1 (some centres not stated) | 0.057 | 0.86
42 | C=CCOc1cncc([C@H]2CN3CCC2C3)n1 (some centres not stated) | 0.03 | 0.23
43 | C#CCOc1cncc(C2CN3CCC2C3)n1 (configuration not stated) | 0.0088 | 0.15
44 | Nc1noc(C2CN3CCC2C3)n1 (stereo in doubt; 3b) | 0.0051 | 
45 | COc1cncc(C2CN3CCC2CC3)n1 (configuration not stated) | 0.0076 | 0.14
46 | Cc1ncc([C@@H]2CN3CCC2C3)nc1C (some centres not stated) | 0.013 | 0.53
47 | CC(C)Oc1cncc([C@@H]2CN3CCC2C3)n1 (some centres not stated) | 0.012 | 0.049
48 | Cc1nccnc1[C@H]1CN2CCC1C2 (some centres not stated) | 0.00026 | 0.21
49 | Cc1nccnc1C1CN2CCC1CC2 (configuration not stated) | 0.01 | 1.51
